Laboratory results reported in patent US20140023611A1 (priority 2010, published 2014).

Legend:
[1] = Stability of compounds in simulated intestinal fluid (SIF); format: in vitro ADME; conditions: simulated intestinal fluid (3 mg/mL pancreatin), incubation time 6 hr, relative to t=0
Protocol: (§1) Test compounds were incubated at […] in simulated gastric fluid (SGF; standard USP solution with 3 mg/mL pepsin) or simulated intestinal fluid (SIF; standard USP solution with 3 mg/mL pancreatin) for 3 hr or 6 hr. HPLC-UV or HPLC-MS were used to determine test compound levels using peak area %. Results (Table 14) were reported as the percentage of test compound remaining after incubation in a given condition relative to test compound present at t=0 in the same condition.

[2] = Determination of compound Cmax and AUC after oral gavage (plasma LC-MS/MS); format: in vivo, Sprague-Dawley rats; conditions: Sprague-Dawley, rat, plasma, po, Structure (I) examples, Table 15, actual oral dose 3-15 mg/kg, plasma 0.5-4 h
Protocol: (§2) Sprague-Dawley rats were orally gavaged with test article at a nominal dose of 2.5 or 10 mg/kg and blood was collected at 0.5, 1, 2 and 4 h. Blood samples were processed to plasma using K2EDTA as an anticoaglulant. Plasma samples were treated with acetonitrile containing an internal standard, precipitated proteins removed by centrifugation. Supernatants were analyzed by LC-MS/MS and compound concentrations were determined by interpolation from a standard curve prepared in plasma. All compounds were orally dosed at the dosage shown, and pharmacokinetic parameters determined.
as §2, with “interpolated” for “interpolation”
as §2, with “interpolated” for “interpolation”

rat NaP2b (SLC34A2) = target: T1, rat NaP2b (SLC34A2) (Rattus norvegicus, UniProt Q9JJ09); test: Inhibition of NaP2b-mediated Pi (33P) uptake in transfected HEK293 cells, rat NaP2b; format: cell-based; conditions: 33P Pi uptake, 0.1 mM phosphate, value given as pIC50 range
T1 construct: host or cells: HEK293
T1 sequence (Q9JJ09 1-695): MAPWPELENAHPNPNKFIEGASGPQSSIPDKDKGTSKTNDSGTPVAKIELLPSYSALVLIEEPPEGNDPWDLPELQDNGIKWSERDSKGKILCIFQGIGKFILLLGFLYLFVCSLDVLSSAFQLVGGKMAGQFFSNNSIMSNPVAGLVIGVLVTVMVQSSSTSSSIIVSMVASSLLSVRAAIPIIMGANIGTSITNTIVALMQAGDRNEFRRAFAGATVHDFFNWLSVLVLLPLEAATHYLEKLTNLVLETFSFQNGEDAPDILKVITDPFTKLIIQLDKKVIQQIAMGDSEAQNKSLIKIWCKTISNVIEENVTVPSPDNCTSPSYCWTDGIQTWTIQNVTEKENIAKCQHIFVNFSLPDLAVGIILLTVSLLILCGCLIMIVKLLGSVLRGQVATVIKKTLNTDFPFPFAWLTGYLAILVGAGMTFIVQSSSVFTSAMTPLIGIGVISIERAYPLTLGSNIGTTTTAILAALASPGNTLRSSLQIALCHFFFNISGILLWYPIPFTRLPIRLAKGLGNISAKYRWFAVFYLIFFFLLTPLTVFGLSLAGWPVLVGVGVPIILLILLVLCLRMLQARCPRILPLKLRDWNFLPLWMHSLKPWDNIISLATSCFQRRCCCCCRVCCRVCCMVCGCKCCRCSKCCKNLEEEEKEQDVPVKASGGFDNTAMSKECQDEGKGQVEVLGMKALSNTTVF
In short: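 HEK293 cells were transiently transfected with NaP2b cDNA using Lipofectamine and grown near confluence. Compounds were tested at twelve concentrations from 0.1 nM to 30 uM in duplicate, and 33P-phosphate uptake was counted by scintillation after lysis. Results are expressed as pIC50.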

[3] = Stability of compounds in simulated gastric fluid (SGF); format: in vitro ADME; conditions: simulated gastric fluid (3 mg/mL pepsin), incubation time 6 hr, relative to t=0
Protocol: as §1

human NaP2b (SLC34A2) = target: T2, human NaP2b (SLC34A2) (Homo sapiens, UniProt O95436); test: Inhibition of NaP2b-mediated Pi (33P) uptake in transfected HEK293 cells, human NaP2b; format: cell-based; conditions: read-out: pIC50 range for human NaP2b (converted)
T2 construct: host or cells: HEK293
T2 sequence (O95436 1-690): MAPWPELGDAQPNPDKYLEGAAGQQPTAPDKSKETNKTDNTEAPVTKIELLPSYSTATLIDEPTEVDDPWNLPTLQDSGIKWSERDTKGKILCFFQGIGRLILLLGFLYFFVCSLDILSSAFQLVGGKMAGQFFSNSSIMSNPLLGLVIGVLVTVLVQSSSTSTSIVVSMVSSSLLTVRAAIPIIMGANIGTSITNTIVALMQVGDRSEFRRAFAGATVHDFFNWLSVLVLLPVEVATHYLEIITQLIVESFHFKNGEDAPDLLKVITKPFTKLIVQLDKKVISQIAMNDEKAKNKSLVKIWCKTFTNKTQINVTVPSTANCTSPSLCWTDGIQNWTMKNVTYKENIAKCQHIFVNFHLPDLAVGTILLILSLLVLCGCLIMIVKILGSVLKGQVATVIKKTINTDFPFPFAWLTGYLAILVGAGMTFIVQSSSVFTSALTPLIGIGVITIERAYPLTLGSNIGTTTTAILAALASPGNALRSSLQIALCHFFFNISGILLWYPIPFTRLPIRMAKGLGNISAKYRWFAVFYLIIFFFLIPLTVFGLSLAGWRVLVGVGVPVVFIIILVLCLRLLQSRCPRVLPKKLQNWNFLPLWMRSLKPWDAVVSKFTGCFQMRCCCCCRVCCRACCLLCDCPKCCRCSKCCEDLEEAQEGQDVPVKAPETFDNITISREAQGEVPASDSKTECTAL
In short: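 HEK293 cells transiently transfected with human NaP2b (Thr inserted after residue 37, N39D), endogenous PiT transport pharmacologically silenced. Sodium or choline buffer, pH 7.4, with 100 uM KH2PO4, 33P orthophosphate and compound (0.1 nM–30 uM, twelve concentrations, duplicate). 3-30 min at room temperature, scintillation counting, pIC50 derived.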

| SMILES | % remaining, SIF [1] | AUC [2] [ng·h/mL] | Cmax [2] [ng/mL] | IC50 (rat NaP2b (SLC34A2)) [nM] | % remaining, SGF [3] [%] | IC50 (human NaP2b (SLC34A2)) [nM] |
| --- | --- | --- | --- | --- | --- | --- |
| CCN(CC)c1ccc(NC(=O)c2cccc(CSc3cccc(CC(=O)O)c3)c2)c(-c2cc(C(=O)NCc3cccc(C(F)(F)F)c3)ccn2)c1 [Example 143, 2-(3-(3-(4-(diethylamino)-2-(4-(3-(trifluoromethyl)benzylcarbamoyl)pyridin-2-yl)phenylcarbamoyl)benzylthio)phenyl)acetic acid] | – | < 10 | < 10 | < 1000 | – | < 1000 |
| O=C(CCOCCOCCOCCOCCSCc1cccc(C(=O)Nc2ccc(N3CCCCC3)cc2-c2cc(C(=O)NCc3cccc(C(F)(F)F)c3)ccn2)c1)NCCN1CCOCC1 [Example 146, 2-(2-(3-(20-morpholino-17-oxo-5,8,11,14-tetraoxa-2-thia-18-azaicosyl)benzamido)-5-(piperidin-1-yl)phenyl)-N-(3-(trifluoromethyl)benzyl)isonicotinamide] | 60-80% | < 10 | < 10 | 1000 to 7940 | >80 | – |
| O=C(NCc1cccc(C(F)(F)F)c1)c1ccnc(-c2cc(N3CCCCC3)ccc2NC(=O)c2cccc(CSCCOCCOCCOCCOCCC(=O)N3CCN(CCOCCO)CC3)c2)c1 [Example 147] | >80% | < 10 | < 10 | 1000 to 7940 | >80 | – |
| CCN(CC)c1ccc(NC(=O)c2cccc(C(=O)N(C)CCN3CCCN(C(=O)OCCOCCOCCOCCOCCOCCOCCOCCOCCOCCOCCOC)CC3)c2)c(-c2cc(C(=O)N[C@H]3CCCc4ccccc43)ccn2)c1 [Example 199, (S)-2,5,8,11,14,17,20,23,26,29,32-undecaoxatetratriacontan-34-yl 4-(2-(3-((4-(diethylamino)-2-(4-((1,2,3,4-tetrahydronaphthalen-1-yl)carbamoyl)pyridin-2-yl)phenyl)carbamoyl)-N-methylbenzamido)ethyl)-1,4-diazepane-1-carboxylate] | >80% | < 10 | < 10 | – | >80 | – |
| CN(CCN1CCNC(=O)C1)C(=O)c1cccc(C(=O)Nc2ccc(N3CCCCC3)cc2-c2cc(C(=O)N[C@H]3CCCc4ccccc43)ccn2)c1 [Example 215, (S)—N1-methyl-N1-(2-(3-oxopiperazin-1-yl)ethyl)-N3-(4-(piperidin-1-yl)-2-(4-(1,2,3,4-tetrahydronaphthalen-1-ylcarbamoyl)pyridin-2-yl)phenyl)isophthalamide] | – | < 10 | < 10 | < 1000 | – | < 1000 |
| CN1CCN(CCN(C)C(=O)c2cccc(C(=O)Nc3ccc(N4CCCCC4)cc3-c3cc(C(=O)N[C@H]4CCCc5ccccc54)ccn3)c2)CC1=O [Example 216, (S)—N1-methyl-N1-(2-(4-methyl-3-oxopiperazin-1-yl)ethyl)-N3-(4-(piperidin-1-yl)-2-(4-(1,2,3,4-tetrahydronaphthalen-1-ylcarbamoyl)pyridin-2-yl)phenyl)isophthalamide] | – | < 10 | < 10 | < 1000 | – | < 1000 |

The remaining lines, values ahead:

| % remaining, SIF [1] | AUC [2] [ng·h/mL] | Cmax [2] [ng/mL] | IC50 (rat NaP2b (SLC34A2)) [nM] | % remaining, SGF [3] [%] | IC50 (human NaP2b (SLC34A2)) [nM] | SMILES |
| --- | --- | --- | --- | --- | --- | --- |
| >80% | < 50 | < 30 | < 1000 | >80 | – | CCN(CC)c1ccc(NC(=O)c2cccc(C(=O)N(C)CCN3CCOCC3)c2)c(-c2cc(C(=O)N[C@H]3CCCc4ccccc43)ccn2)c1 [Example 131, (S)—N^1-(4-(diethylamino)-2-(4-((1,2,3,4-tetrahydronaphthalen-1-yl)carbamoyl)pyridin-2-yl)phenyl)-N^3-methyl-N^3-(2-morpholinoethyl)isophthalamide] |
| >80% | – | – | – | >80 | – | CCN(CC)c1ccc(NC(=O)c2cccc(Cn3ccc4c(C(=O)NCCOCCOCCOCCC(=O)O)cccc43)c2)c(-c2cc(C(=O)N[C@H]3CCCc4ccccc43)ccn2)c1 [Example 182, (S)-1-(1-(3-(4-(diethylamino)-2-(4-(1,2,3,4-tetrahydronaphthalen-1-ylcarbamoyl)pyridin-2-yl)phenylcarbamoyl)benzyl)-1H-indol-4-yl)-1-oxo-5,8,11-trioxa-2-azatetradecan-14-oic acid] |
| – | < 10 | < 10 | 1000 to 7940 | – | 1000 to 7940 | O=C(O)CCOCCOCCOCCNC(=O)c1cccc(SCc2cccc(C(=O)Nc3ccc(N4CCCCC4)cc3-c3cc(C(=O)N[C@H]4CCCc5ccccc54)ccn3)c2)c1 [Example 233, (S)-1-oxo-1-(3-(3-(4-(piperidin-1-yl)-2-(4-(1,2,3,4-tetrahydronaphthalen-1-ylcarbamoyl)pyridin-2-yl)phenylcarbamoyl)benzylthio)phenyl)-5,8,11-trioxa-2-azatetradecan-14-oic acid] |
| – | < 30 | < 10 | < 1000 | – | < 1000 | O=C(O)Cc1cccc(SCc2cccc(C(=O)Nc3ccc(N4CCCCC4)cc3-c3cc(C(=O)N[C@H]4CCCc5ccccc54)ccn3)c2)c1 [Example 234, (S)-2-(3-(3-(4-(piperidin-1-yl)-2-(4-(1,2,3,4-tetrahydronaphthalen-1-ylcarbamoyl)pyridin-2-yl)phenylcarbamoyl)benzylthio)phenyl)acetic acid] |
| >80% | – | – | < 1000 | >80 | – | CN(CCOCCOCCOCCC(=O)O)C(=O)Cc1cccc(SCc2cccc(C(=O)Nc3ccc(N4CCCCC4)cc3-c3cc(C(=O)N[C@H]4CCCc5ccccc54)ccn3)c2)c1 [Example 235, (S)-3-methyl-2-oxo-1-(3-(3-(4-(piperidin-1-yl)-2-(4-(1,2,3,4-tetrahydronaphthalen-1-ylcarbamoyl)pyridin-2-yl)phenylcarbamoyl)benzylthio)phenyl)-6,9,12-trioxa-3-azapentadecan-15-oic acid] |
